The text below walks through data of ChEMBL document CHEMBL1909046, “DrugMatrix in vitro pharmacology data”.

Structures are written as SMILES.

By IC50 is commonly meant the concentration needed to halve the response being measured. By Ki is commonly meant the equilibrium dissociation constant of an inhibitor or competing ligand from its target.

The target of assay [1] is T1, Alpha-1A adrenergic receptor (Rattus norvegicus, UniProt P43140).
T1 sequence (P43140 whole entry): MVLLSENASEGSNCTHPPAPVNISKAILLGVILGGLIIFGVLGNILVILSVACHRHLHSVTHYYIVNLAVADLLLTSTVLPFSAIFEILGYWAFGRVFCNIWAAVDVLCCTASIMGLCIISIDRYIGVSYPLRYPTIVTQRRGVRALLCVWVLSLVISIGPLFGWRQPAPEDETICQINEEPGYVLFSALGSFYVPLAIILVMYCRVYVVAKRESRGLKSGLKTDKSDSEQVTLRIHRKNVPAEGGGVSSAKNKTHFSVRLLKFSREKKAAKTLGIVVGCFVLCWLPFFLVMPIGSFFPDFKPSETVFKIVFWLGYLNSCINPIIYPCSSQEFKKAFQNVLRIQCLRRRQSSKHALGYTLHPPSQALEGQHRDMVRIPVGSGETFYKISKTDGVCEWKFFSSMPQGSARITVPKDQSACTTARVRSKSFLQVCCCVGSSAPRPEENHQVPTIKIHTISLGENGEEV
The assay is described as follows: DRUGMATRIX: Alpha-1A adrenergic receptor radioligand binding (ligand: prazosin). As to conditions: Not Active = under 50% inhibition at 10 µM. It counts as cell membranes, Wistar, Submaxillary gland, Membrane.

The target in assay [2] is Mitogen-activated protein kinase 14 (Homo sapiens, UniProt Q16539). Details: species or system Escherichia coli.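 Also: inhibition of p38alpha enzyme activity in a biochemical kinase assay, with myelin basic protein serving as substrate; in other assays of this panel Not Active means under 50% inhibition at 10 µM.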
Chain of Mitogen-activated protein kinase 14 (Q16539 whole entry): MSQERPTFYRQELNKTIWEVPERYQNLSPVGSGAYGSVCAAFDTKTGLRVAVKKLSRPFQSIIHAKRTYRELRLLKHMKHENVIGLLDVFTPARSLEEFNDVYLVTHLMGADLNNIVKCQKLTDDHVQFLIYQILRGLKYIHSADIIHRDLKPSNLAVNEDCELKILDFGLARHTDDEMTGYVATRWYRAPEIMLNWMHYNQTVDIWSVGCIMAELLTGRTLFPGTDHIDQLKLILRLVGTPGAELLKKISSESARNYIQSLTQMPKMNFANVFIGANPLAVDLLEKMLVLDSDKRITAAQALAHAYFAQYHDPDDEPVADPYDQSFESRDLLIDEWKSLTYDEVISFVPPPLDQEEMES
A short description of assay [3]: DRUGMATRIX: Nicotinic Acetylcholine radioligand binding (ligand: [125I] Epibatidine). In kind it is cell membranes, Membrane. As to conditions: imr-32, Not Active = under 50% inhibition at 10 µM.
Assay [4] concerns the target Tyrosine-protein kinase Lck (Homo sapiens, UniProt P06239). The assay is described as follows: DRUGMATRIX: Protein Tyrosine Kinase, LCK enzyme inhibition (substrate: Poly(Glu:Tyr)). Conditions: insect cells; Not Active = under 50% inhibition at 10 µM. It counts as cell-based, Insect cells.
The target of assay [5] is 5-hydroxytryptamine receptor 6 (Homo sapiens, UniProt P50406). It counts as cell membranes, HeLa, Membrane. Conditions: for Ki: read-out: Ki. As to all read-outs here: in other assays of this panel Not Active means under 50% inhibition at 10 µM.
Chain of 5-hydroxytryptamine receptor 6 (P50406 whole entry): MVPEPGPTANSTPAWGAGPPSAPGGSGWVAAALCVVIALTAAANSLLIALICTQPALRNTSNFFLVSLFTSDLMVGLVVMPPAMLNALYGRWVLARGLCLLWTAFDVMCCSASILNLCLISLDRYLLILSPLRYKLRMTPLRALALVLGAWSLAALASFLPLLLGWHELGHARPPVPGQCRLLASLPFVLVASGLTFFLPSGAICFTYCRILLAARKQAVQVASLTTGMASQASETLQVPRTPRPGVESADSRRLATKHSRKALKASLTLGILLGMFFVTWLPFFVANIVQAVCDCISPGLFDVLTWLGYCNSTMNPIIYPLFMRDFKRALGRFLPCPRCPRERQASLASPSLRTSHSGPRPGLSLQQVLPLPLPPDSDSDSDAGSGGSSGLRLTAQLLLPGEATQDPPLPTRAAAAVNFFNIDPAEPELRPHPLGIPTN

Chain of Tyrosine-protein kinase Lck (P06239 whole entry): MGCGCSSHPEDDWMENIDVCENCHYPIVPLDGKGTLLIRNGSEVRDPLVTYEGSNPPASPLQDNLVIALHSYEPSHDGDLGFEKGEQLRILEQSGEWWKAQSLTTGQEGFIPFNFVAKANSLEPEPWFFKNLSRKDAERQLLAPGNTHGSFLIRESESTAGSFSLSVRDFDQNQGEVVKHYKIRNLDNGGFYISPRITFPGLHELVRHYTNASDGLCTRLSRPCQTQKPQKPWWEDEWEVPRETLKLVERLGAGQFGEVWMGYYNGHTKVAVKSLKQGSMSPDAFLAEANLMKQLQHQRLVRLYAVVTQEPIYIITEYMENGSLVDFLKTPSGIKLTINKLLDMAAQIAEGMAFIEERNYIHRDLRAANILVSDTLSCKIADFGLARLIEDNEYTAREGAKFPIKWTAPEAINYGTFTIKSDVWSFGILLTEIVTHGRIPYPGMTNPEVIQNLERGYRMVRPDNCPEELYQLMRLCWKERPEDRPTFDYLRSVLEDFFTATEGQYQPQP

Turning to `COc1ccc(Cl)cc1C(=O)NCCc1ccc(S(=O)(=O)NC(=O)NC2CCCCC2)cc1` [GLYBURIDE], the IC50 result in assay [1], in assay [2], in assay [3], in assay [4] and in assay [5] (hela) was “Not Active” each time. In addition, in assay [3], the Ki entry is on record as “Not Active”.
Consider `CC(C)NCC(O)COc1ccc(CC(N)=O)cc1` (stereo unspecified) [ATENOLOL], for which the IC50 entry in assay [1], in assay [2], in assay [3], in assay [4] and in assay [5] (hela) was “Not Active” in each case. Also, the inhibitory constant (Ki) entry in assay [3] is listed as “Not Active”.
Take `O=C(O)COC(=O)Cc1ccccc1Nc1c(Cl)cccc1Cl` [ACECLOFENAC]: the IC50 entry in assay [1], in assay [2], in assay [3], in assay [4] and in assay [5] (hela) was “Not Active” throughout. For the same molecule, in assay [3], the Ki result is “Not Active”.
As to `Cl.NC[C@H]1CC[C@H](C(=O)Oc2ccc(CCC(=O)O)cc2)CC1` [CETRAXATE HYDROCHLORIDE], the 50% inhibitory concentration (IC50) result in assay [1], in assay [2], in assay [3], in assay [4] and in assay [5] (hela) was “Not Active” throughout. In assay [3], the Ki result is “Not Active”.
On to `O=C(O)c1ccccc1` [BENZOIC ACID], for which the IC50 result in assay [1], in assay [2], in assay [3], in assay [4] and in assay [5] (hela) was “Not Active” throughout. In addition, in assay [3], the Ki result is “Not Active”.
Regarding `O=C(O)CO` [GLYCOLIC ACID], the IC50 entry in assay [1], in assay [2], in assay [3], in assay [4] and in assay [5] (hela) was “Not Active” each time. In addition, the inhibition constant Ki result in assay [3] was “Not Active”.
In the case of `O=C(NCCN1CCOCC1)c1ccc(Cl)cc1` [MOCLOBEMIDE], the IC50 entry in assay [1], in assay [2], in assay [3], in assay [4] and in assay [5] (hela) was “Not Active” in each case. Further, the Ki result in assay [3] is reported as “Not Active”.
As for `C#C[C@]1(O)CC[C@H]2[C@@H]3CCC4=CC(=O)CC[C@@H]4[C@H]3CC[C@@]21C` [NORETHINDRONE], the IC50 entry in assay [1], in assay [2], in assay [3], in assay [4] and in assay [5] (hela) was “Not Active” each time. In assay [3], the Ki result is listed as “Not Active”.
In the case of `CCC1(c2ccccc2)C(=O)NC(=O)NC1=O` [PHENOBARBITAL], the IC50 result in assay [1], in assay [2], in assay [3], in assay [4] and in assay [5] (hela) was “Not Active” in each case. In addition, in assay [3], the Ki entry is “Not Active”.
For `CCN1C[C@]2(COC)[C@H](O)C[C@H](OC)[C@@]34[C@@H]5C[C@@]6(O)[C@H](OC(=O)c7ccccc7)[C@@H]5[C@@](OC(C)=O)([C@@H]([C@H](OC)[C@H]23)[C@@H]14)[C@@H](O)[C@@H]6OC` [ACONITINE], the IC50 result in assay [1], in assay [2], in assay [3], in assay [4] and in assay [5] (hela) was “Not Active” throughout. Moreover, the Ki result in assay [3] is listed as “Not Active”.
Take `Oc1ccccc1` [PHENOL]: the IC50 entry in assay [1], in assay [2], in assay [3], in assay [4] and in assay [5] (hela) was “Not Active” in each case. In addition, in assay [3], the Ki entry is on record as “Not Active”.
Regarding `COc1cc(NC(C)CCCN)c2ncccc2c1` (stereo unspecified) [PRIMAQUINE], the IC50 entry in assay [1], in assay [2], in assay [3], in assay [4] and in assay [5] (hela) was “Not Active” in each case. Besides, the Ki entry in assay [3] is on record as “Not Active”.
In the case of `C[C@H]1C[C@H]2[C@@H]3CCC4=CC(=O)C=C[C@]4(C)[C@@]3(F)[C@@H](O)C[C@]2(C)[C@@]1(O)C(=O)CO` [BETAMETHASONE], the IC50 result in assay [1], in assay [2], in assay [3], in assay [4] and in assay [5] (hela) was “Not Active” each time. Further, the inhibition constant Ki entry in assay [3] was “Not Active”.
On to `CNC[C@H](O)c1ccc(O)c(O)c1` [EPINEPHRINE], for which the IC50 entry in assay [2], in assay [3], in assay [4] and in assay [5] (hela) was “Not Active” in each case. Also, the Ki entry in assay [3] is listed as “Not Active”.
Consider `c1ccc2c(c1)Nc1ccccc1S2` [PHENOTHIAZINE], for which the IC50 entry in assay [1], in assay [2], in assay [3], in assay [4] and in assay [5] (hela) was “Not Active” each time. Further, in assay [3], the Ki result was “Not Active”.
Take `CC(C)(c1ccc(O)cc1)c1ccc(O)cc1` [BISPHENOL A]: the IC50 result is “Not Active” in assay [1]; “Not Active” in assay [2]; “Not Active” in assay [3]; “Not Active” in assay [4]; 5420 nM in assay [5] (read-out: IC50). In addition, the figures for the Ki result in assay [3] and in assay [5] were “Not Active” and 2520 nM, respectively.
In the case of `CCN1CCN(C(=O)N[C@@H](C(=O)N[C@@H]2C(=O)N3[C@@H]2SC(C)(C)[C@@H]3C(=O)O)c2ccccc2)C(=O)C1=O` [PIPERACILLIN], the IC50 result in assay [1], in assay [2], in assay [3], in assay [4] and in assay [5] (hela) was “Not Active” in each case. Also, in assay [3], the Ki entry is recorded as “Not Active”.
As to `CC(CN1c2ccccc2Sc2ccccc21)N(C)C` (stereo unspecified) [PROMETHAZINE], the IC50 entry in assay [2] was “Not Active”; in assay [3], “Not Active”; in assay [4], “Not Active”; in assay [5] (read-out: IC50) it was 2430 nM. The Ki entry in assay [3] was “Not Active”; in assay [5], 1130 nM.
As to `CC[C@H]1OC(=O)[C@H](C)[C@@H](O[C@H]2C[C@@](C)(OC)[C@@H](O)[C@H](C)O2)[C@H](C)[C@@H](O[C@@H]2O[C@H](C)C[C@H](N(C)C)[C@H]2O)[C@](C)(O)C[C@@H](C)C(=O)[C@H](C)[C@@H](O)[C@]1(C)O` [ERYTHROMYCIN], the IC50 entry in assay [1], in assay [2], in assay [3], in assay [4] and in assay [5] (hela) was “Not Active” in each case. Besides, the inhibition constant (Ki) entry in assay [3] is reported as “Not Active”.
As for `C[N+](C)(C)CCOC(N)=O.[Cl-]` [CARBACHOL], the IC50 result was “Not Active” in assay [1]; “Not Active” in assay [2]; 1000 nM in assay [3] (read-out: IC50); “Not Active” in assay [4]; “Not Active” in assay [5] (hela). In addition, the Ki in assay [3] (read-out: Ki) came to 334 nM.
As for `NS(=O)(=O)c1cc(C(=O)O)c(NCc2ccco2)cc1Cl` [FUROSEMIDE], the IC50 entry in assay [1], in assay [2], in assay [3], in assay [4] and in assay [5] (hela) was “Not Active” throughout. Further, the Ki entry in assay [3] is “Not Active”.
